Measurements: patent US8399208B2, “Method and kit for the measurement of neutrophil cell activation” (Universite de Liege, priority 2004, dated 2013)

Tests used:
[1] = system: activated equine neutrophils; assay: Chemiluminescence response (lucigenin) of PMA-activated equine neutrophils; type: cell-based, horse; conditions: for Inhibition percentage on chemiluminescence response of activated neutrophils: 10^-5 M, neutrophils activated with 8×10^-7 M PMA, lucigenin
Description: (§1) Neutrophils isolated from citrated blood of healthy horses were counted, suspended in phosphate buffer saline (PBS) at pH 7.4 and incubated 10 min at 37° C. with curcumin or THC at the final concentration of 10^−4, 10^−5 or 10^−6 M. After incubation and centrifugation (1000×g, 10 min), the neutrophils were resuspended in PBS and either activated 30 min with 8×10^−7 M phorbol myristate acetate (PMA), with a simultaneous monitoring of the chemiluminescent response in presence of lucigenin (5×10^-8 M), or activated in the same conditions followed by centrifugation and MPO measurement in the supernatant. MPO, marker of neutrophil degranulation, was measured by a specific ELISA assay raised against equine MPO. The effect of polyphenols on MPO activity was tested by SIEFED (“Specific Immunological Extraction Followed by Enzymatic Detection”) method that allows the study of drug interaction with the enzyme without reaction medium interferences.

[2] = system: activated equine neutrophils; assay: MPO release by PMA-activated neutrophils, MPO measured by ELISA in the supernatant; type: cell-based, horse; conditions: for Inhibitory percentage, MPO assay by ELISA in the supernatant after neutrophils activation with PMA (MPO release): drug concentration 10^-5 M
Description: FIG. 16 represents the inhibitory effect of curcumin on MPO release by neutrophils incubated in PBS buffer with or without stimulation with phorbol myristate acetate (PMA) (Curcumin (Curcu) was dissolved in ethanol. MPO was measured by ELISA in the supernatant of activated neutrophils).
The ELISA developed for MPO (1) measurement is further referred to as a MYELO-ELISA. Rabbit IgG, the primary antibody (2), is immobilized (coated) in excess (3 μg/ml) onto microtitration wells (3) (Cliniplate EB, Labsystem). Standard or test antigen (equine MPO (1)) is incubated overnight with the primary antibody (2) at 4° C. After washing (0.9% NaCl solution containing 0.1% tween 20), the immobilized antibody-antigen complex is incubated (2 h, 37° C.) with an excess (5 μg/ml) of guinea pig IgG, the secondary antibody (4). After washing, a third antibody (5) produced against guinea pig IgG is added. This third IgG (5) (goat IgG) is labelled with alkaline phosphatase (6) and recognizes the “sandwich” complex “primary antibody-MPO-secondary antibody”. After washing, phosphatase activity is detected by incubation (30 min, 37° C., in the darkness) with a paranitrophenyl phosphate solution (phosphatase substrate, Sigma). The reaction is stopped with NaOH and the absorbance (405 nm) is measured with a Multiscan Ascent apparatus (Labsystem) (7). All the volumes added into the wells comprise 100 μl, except for washing (300 μl) and for the substrate solution (200 μl). Controls (blank) and dilutions of the standard MPO and samples were established with dilution buffer [PBS (20 mM phosphate, 137 mM NaCl and 2.7 mM KCl pH 7.4) to which 5 g/L bovine serum albumin and 0.1% tween 20 was added]. The same ELISA technique was developed also for monoclonal antibodies as primary antibody.
as §1

equine MPO = assay: MPO activity by SIEFED (specific immunological extraction followed by enzymatic detection); type: biochemical, horse; conditions: for Effect on MPO activity (in words): SIEFED, polyphenol incubated with MPO, then capture, washing, enzymatic detection
Description: FIG. 17 represents the inhibitory effect of curcumin on MPO activity. Concentration of MPO used: 9 ng/ml. The incubation time of curcumin with MPO before assay by SIEFED was 30 min. (The most concentrated curcumin solution was prepared in ethanol (175 mM) and dilutions of this concentrated solution were performed with PBS buffer).
As for the ELISA test, the primary antibody, that captures MPO, is rabbit IgG (3 μg/ml). Standard MPO or unknown sample is incubated 2 h at 37° C. After washing, the peroxidase activity of MPO is detected by adding 100 μl of a 10 μM H2O2 solution and 40 μM of Amplex® Red (10-acetyl-3,7-dihydroxyphenoxazine; Molecular Probes) in phosphate buffer (50 mM, pH 7.5). After incubation in the darkness (30 min, 37° C.), the fluorescence is read at 590 nm with a Fluoroskan Ascent apparatus (Labsystems). The volumes of the primary antibody and the sample put in the wells, are 200 μl. Controls (blank) and dilutions of the samples are established with dilution buffer.
as §1
The SIEFED was applied to study the effects of two natural polyphenols (curcumin and resveratrol) on MPO activity.

| Compound | Inhibition percentage on chemiluminescence response of activated neutrophils [1] | Inhibitory percentage, MPO assay by ELISA in the supernatant after neutrophils activation with PMA ([2]; drug concentration 10^-4 M) | Inhibitory percentage, MPO assay by ELISA in the supernatant after neutrophils activation with PMA (MPO release) [2] | Inhibitory percentage, MPO assay by ELISA in the supernatant after neutrophils activation with PMA ([2]; drug concentration 10^-6 M) | Effect on the chemiluminescence response of activated neutrophils (in words) ([1]; 10^-4, 10^-5 or 10^-6 M) | Effect on the MPO release by activated neutrophils (in words) ([2]; 10^-4, 10^-5 or 10^-6 M) | Inhibitory percentage, MPO assay by ELISA in the supernatant after neutrophils activation with PMA (MPO release) ([2]; listed as curcumin) | Effect on MPO activity (in words) (equine MPO) | Effect on MPO activity (in words) (equine MPO; listed as curcumin) | Inhibitory percentage, MPO activity (SIEFED) (equine MPO; drug concentration 10^-4 M) | Inhibitory percentage, MPO activity (SIEFED) (equine MPO; drug concentration 10^-5 M) | Inhibitory percentage, MPO activity (SIEFED) (equine MPO; drug concentration 10^-5 M, listed as curcumin) | Inhibitory percentage, MPO activity (SIEFED) (equine MPO; drug concentration 10^-6 M) |
| --- | --- | --- | --- | --- | --- | --- | --- | --- | --- | --- | --- | --- | --- |
| COc1cc(CCC(=O)CC(=O)CCc2ccc(O)c(OC)c2)ccc1O [tetrahydrocurcumin] | 12% | 41% | 18% | 17% | – | – | – | – | – | – | – | – | – |
| COc1cc(/C=C/C(=O)CC(=O)/C=C/c2ccc(O)c(OC)c2)ccc1O [Curcumin] | 70% | 83.5% | 43.6% | 0% | dose dependent inhibitory effects | dose dependent inhibitory effects | 44% | dose dependent inhibitory effects | direct dose dependent inhibitory effect | 96.2% | 60.4% | 60% | 21.1% |
| Oc1ccc(C=Cc2cc(O)cc(O)c2)cc1 [resveratrol] | – | – | – | – | – | – | – | direct dose dependent inhibitory effect | – | – | – | – | – |
